Reference: patent US20240262795A1, “PYRAZINE COMPOUNDS AS INHIBITORS OF FLT3” (Biomea Fusion, Inc., priority 2021, published 2024)
pIC50: −log10 of the molar value.

The molecules below were run on MOLM-13 (assay: Proliferation inhibition, CellTiter-Glo, MOLM-13). Settings: Homo sapiens, 96 h; MOLM-13 cells, IC50 (4 days), CellTiter-Glo; read-out: MOLM-13 IC50.
Format: cell-based, human
Method in brief: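 About 10,000 cells per well in RPMI-1640 with 10% FBS. Compounds added 2 h after seeding at eight concentrations in duplicate (0.2% DMSO as 100% proliferation), then incubated ~96 h at 37° C, 5% CO2. ATP measured by CellTiter-Glo luminescence; IC50 from four-parameter logistic fit.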
With `CCc1nc(Nc2cccc([C@@H](C)CNC(=O)CN(C)C(=O)/C=C/CN3CCC3)c2)c(C(N)=O)nc1CC` [Compound 508, (R, E)-3-((3-(1-(2-(4-(azetidin-1-yl)-N-methylbut-2-enamido)acetamido)propan-2-yl)phenyl)amino)-5,6-diethylpyrazine-2-carboxamide] the pIC50 was less than 6.30. With `CCc1nc(C(N)=O)c(Nc2cccc([C@@H](C)CNC(=O)CN(C)C(=O)/C=C/CN3CCC3)c2)nc1N(C)CC` [Compound 518, (R,E)-3-((3-(1-(2-(4-(azetidin-1-yl)-N-methylbut-2-enamido)acetamido)propan-2-yl)phenyl)amino)-6-ethyl-5-(ethyl(methyl)amino)pyrazine-2-carboxamide] the pIC50 was greater than 9.00. `CCc1nc(C(N)=O)c(Nc2ccnc(CCNC(=O)[C@H](C)N(C)C(=O)/C=C/CN(C)C)c2)nc1N(C)C(C)C` [Compound 605, (S, E)-3-((2-(2-(2-(4-(dimethylamino)-N-methylbut-2-enamido)propanamido)ethyl)pyridin-4-yl)amino)-6-ethyl-5-(isopropyl (methyl)amino) pyrazine-2-carboxamide] gave a pIC50 greater than 9.00. In the case of `CCc1nc(C(N)=O)c(Nc2ccnc(CCNC(=O)[C@H](C)N(C)C(=O)/C=C/CN(C)C)c2)nc1C1CC1` [Compound 310, (S,E)-5-cyclopropyl-3-((2-(2-(2-(4-(dimethylamino)-N-methylbut-2-enamido)propanamido)ethyl)pyridin-4-yl)amino)-6-ethylpyrazine-2-carboxamide], the pIC50 was 8.00 to 9.00. Molecule `CCc1nc(C(N)=O)c(Nc2cccc(CCNC(=O)[C@H](C)N(C)C(=O)/C=C/CN(C)C)c2)nc1NC(C)C` [Compound 205, (S,E)-3-((3-(2-(2-(4-(dimethylamino)-N-methylbut-2-enamido)propanamido)ethyl)phenyl)amino)-6-ethyl-5-(isopropylamino)pyrazine-2-carboxamide] has a pIC50 greater than 9.00. Work on `CCCc1nc(Nc2cccc([C@@H](C)CNC(=O)CN(C)C(=O)/C=C/CN3CCC3)c2)c(C(N)=O)nc1CC` [Compound 507, (R,E)-3-((3-(1-(2-(4-(azetidin-1-yl)-N-methylbut-2-enamido)acetamido)propan-2-yl)phenyl)amino)-6-ethyl-5-propylpyrazine-2-carboxamide] yielded a pIC50 greater than 9.00. With `CCc1nc(C(N)=O)c(Nc2cccc(CCNC(=O)[C@H](C)N(C)C(=O)/C=C/CN(C)C)c2)nc1N(C)C(C)C` [Compound 204, (S,E)-3-((3-(2-(2-(4-(dimethylamino)-N-methylbut-2-enamido)propanamido)ethyl)phenyl)amino)-6-ethyl-5-(isopropyl(methyl)amino)pyrazine-2-carboxamide] the pIC50 was greater than 9.00. For `CCOc1nc(Nc2cccc(CCNC(=O)CN(C)C(=O)/C=C/CN3CCC3)c2)c(C(N)=O)nc1CC` [Compound 602, (E)-3-((3-(2-(2-(4-(azetidin-1-yl)-N-methylbut-2-enamido)acetamido)ethyl)phenyl)amino)-5-ethoxy-6-ethylpyrazine-2-carboxamide], the pIC50 was 8.00 to 9.00. With `CCc1nc(C(N)=O)c(Nc2cc(F)cc(CCNC(=O)CN(C)C(=O)/C=C/CN3CCC3)c2)nc1C1CC1` [Compound 516, (E)-3-((3-(2-(2-(4-(azetidin-1-yl)-N-methylbut-2-enamido)acetamido)ethyl)-5-fluorophenyl)amino)-5-cyclopropyl-6-ethylpyrazine-2-carboxamide] the pIC50 was 8.00 to 9.00. `CCc1nc(C(N)=O)c(Nc2cccc(CCNC(=O)CN(C)C(=O)/C=C/CN(C)C)c2)nc1N(C)CC` [Compound 252, (E)-3-((3-(2-(2-(4-(dimethylamino)-N-methylbut-2-enamido)acetamido)ethyl)phenyl)amino)-6-ethyl-5-(ethyl (methyl)amino) pyrazine-2-carboxamide] was tested, and the pIC50 was greater than 9.00. `CCc1nc(C(N)=O)c(Nc2cccc(CCNC(=O)[C@H](C)N(C)C(=O)/C=C/CNC)c2)nc1N(C)C(C)C` [Compound 307, (S,E)-6-ethyl-5-(isopropyl(methyl)amino)-3-((3-(2-(2-(N-methyl-4-(methylamino)but-2-enamido)propanamido)ethyl)phenyl)amino)pyrazine-2-carboxamide] showed a pIC50 greater than 9.00. With `CCc1nc(C(N)=O)c(Nc2cccc(CCNC(=O)CN(C)C(=O)/C=C/CN3CCC3)c2)nc1N(C)CC` [Compound 516A, (E)-3-((3-(2-(2-(4-(azetidin-1-yl)-N-methylbut-2-enamido)acetamido)ethyl)phenyl)amino)-6-ethyl-5-(ethyl(methyl)amino) pyrazine-2-carboxamide] the pIC50 was greater than 9.00. `CCc1nc(C(N)=O)c(Nc2cccc([C@@H](C)CNC(=O)CN(C)C(=O)/C=C/CN3CCC3)c2)nc1C1CC1` [Compound 506, (R,E)-3-((3-(1-(2-(4-(azetidin-1-yl)-N-methylbut-2-enamido)acetamido)propan-2-yl)phenyl)amino)-5-cyclopropyl-6-ethylpyrazine-2-carboxamide] showed a pIC50 greater than 9.00. Molecule `Cc1nc(C(N)=O)c(Nc2cccc(CCNC(=O)CN(C)C(=O)/C=C/CN(C)C)c2)nc1N(C)C(C)C` [Compound 250, (E)-3-((3-(2-(2-(4-(dimethylamino)-N-methylbut-2-enamido)acetamido)ethyl)phenyl)amino)-5-(isopropyl(methyl)amino)-6-methylpyrazine-2-carboxamide] has a pIC50 of 8.00 to 9.00. In the case of `CCc1nc(C(N)=O)c(Nc2cccc(CCNC(=O)CN(C)C(=O)/C=C/CN3CCC3)c2)nc1OC(C)C` [Compound 603, (E)-3-((3-(2-(2-(4-(azetidin-1-yl)-N-methylbut-2-enamido)acetamido)ethyl)phenyl)amino)-6-ethyl-5-isopropoxypyrazine-2-carboxamide], the pIC50 was 8.00 to 9.00. `CCc1nc(C(N)=O)c(Nc2ccc(N3CCC(N4CCN(C)CC4)CC3)c(OC)c2)nc1NC1CCOCC1` [Gilteritinib, gilteritinib, reference compound] showed a pIC50 of 8.00 to 9.00. For `Cc1nc(C(N)=O)c(Nc2cccc(CCNC(=O)[C@H](C)N(C)C(=O)/C=C/CN(C)C)c2)nc1N(C)C(C)C` [Compound 232, (S, E)-3-((3-(2-(2-(4-(dimethylamino)-N-methylbut-2-enamido)propanamido)ethyl)phenyl)amino)-5-(isopropyl (methyl)amino)-6-methylpyrazine-2-carboxamide], the pIC50 was 8.00 to 9.00. Molecule `CCc1nc(C(N)=O)c(Nc2cccc(CCNC(=O)CN(C)C(=O)/C=C/CN(C)C)c2)nc1C1CC1` [Compound 219, (E)-5-cyclopropyl-3-((3-(2-(2-(4-(dimethylamino)-N-methylbut-2-enamido)acetamido)ethyl)phenyl)amino)-6-ethylpyrazine-2-carboxamide] has a pIC50 greater than 9.00. `CCc1nc(C(N)=O)c(Nc2cccc([C@@H](C)CNC(=O)CN(C)C(=O)/C=C/CN(C)C)c2)nc1C1CC1` [Compound 504, (R,E)-5-cyclopropyl-3-((3-(1-(2-(4-(dimethylamino)-N-methylbut-2-enamido)acetamido)propan-2-yl)phenyl)amino)-6-ethylpyrazine-2-carboxamide] showed a pIC50 greater than 9.00.
